{
  "source": "patent US20210387949A1",
  "about": "“NEW SELECTIVE MODULATORS OF INSECT NICOTINIC ACETYLCHOLINE RECEPTORS” (UNIVERSITE DE NANTES, priority 2018, published 2021)",
  "key": {"[1]": {"tested_on": "Honey bees Apis mellifera", "conditions": "literature values (Iwasa 2004; Stark 1995); cited from earlier work"}, "[2]": {"tested_on": "cercal nerve giant interneuron synapses within the cockroach sixth abdominal ganglion (A6)", "test": "Mannitol-gap recordings, neurotoxic effect on insect cholinergic synaptic transmission", "format": "cell-based", "conditions": "for EC50: read-out: EC50 of depolarization; for Depolarization of the sixth abdominal ganglion: in words; for Reversal of synaptic depolarization after wash-out: effect also observed 2 h after application", "procedure": "Neurotoxic effect was studied using mannitol-gap recordings. Experiments were performed on the cercal nerve giant interneuron synapses located within the cockroach sixth abdominal ganglion (A6) using the mannitol-gap method pioneered by Callec (Callec, J. J.; Sattelle, D. B., A simple technique for monitoring the synaptic actions of pharmacological agents. J Exp Biol 1973, 59, (3), 725-38; and Callec, J. J.; Sattelle, D. B.; Hue, B.; Pelhate, M., Central synaptic actions of pharmacological agents in insects: oil-gap and mannitol-gap studies. In Neurotox 79, Sherwood, M., Ed. Plenum Press: New York, 1980; pp 93-100).\nElectrical events were recorded using external electrodes. A non-electrolyte medium (mannitol) was interposed between the recording sites (Callec, J. J.; Sattelle, D. B.; Hue, B.; Pelhate, M., Central synaptic actions of pharmacological agents in insects: oil-gap and mannitol-gap studies. In Neurotox 79, Sherwood, M., Ed. Plenum Press: New York, 1980; pp 93-100). The main advantages of this method were to preserve the recordings of the unitary or evoked excitatory postsynaptic potentials (EPSP) and the postsynaptic polarization. Consequently, monitoring the variations of EPSP amplitude and/or polarization induced by drug application enables dose-response curves to be recorded. Moreover, this set-up allows long-term experiments to be performed and test solutions can be readily applied without any of the technical problems associated with intracellular recording.\nA6 was carefully desheathed to facilitate penetration of bath-applied drugs. The recording electrodes were connected to the input of high-impedance amplifier, whose outputs were passed to a numeric oscilloscope (Hameg, Germany) and a chart recorder (Kipp and Zonen, B D 111, Holland). Variation of postsynaptic polarization was monitored on a chart recorder and the cEPSPs were evoked by electrical stimulations of the ipsilateral cercal nerve XI using a dual pulse stimulator (Campden 915, USA). TMX was applied during 3 min in the same conditions as previously published (Buckingham, S.; Lapied, B.; Corronc, H.; Sattelle, F., Imidacloprid actions on insect neuronal acetylcholine receptors. J Exp Biol 1997, 200, (Pt 21), 2685-92; and Thany, S. H., Agonist actions of clothianidin on synaptic and extrasynaptic nicotinic acetylcholine receptors expressed on cockroach sixth abdominal ganglion. Neurotoxicology 2009, 30, (6), 1045-52), with a micropump fast perfusion (Harvard Apparatus) that produced a constant solution exchange (500 μL/min). All muscarinic and nicotinic antagonists were bath-applied for at least 20 min before a single application of TMX. Recordings were made at room temperature.\nTo compare the depolarizations, the peak amplitudes were normalized (V/Vmax). The dose-response curve was derived from the fitted curve following the equation:\ny=Vmin+(Vmax−Vmin)/(1+10^(log EC^50^−X)H)\nwhere Y is the normalized response, Vmax and Vmin are the maximum and minimum responses, H is the Hill coefficient, EC50 is the concentration giving half the maximum response and X is the logarithm of the compound concentration."}, "honeybee Apis mellifera": {"tested_on": "honeybee Apis mellifera", "test": "Oral toxicity against honeybee", "format": "in vivo", "conditions": "for % mortality 24 h / % mortality 48 h: oral, DMSO 1%; for Toxicity for bees: higher concentrations (150 ng/bee), in words", "procedure": "Honeybees were kept from hives located at the University of Orleans and transferred to the laboratory incubators for experiments (30±1.5° C.; 12/12 h 0/N). They were placed in six different cages, 20 bees per cage, with 40% sucrose solution (control group) or tested compounds.\nAll tests were carried out using adult worker honeybees, Apis mellifera L (Hymenoptera: Apidae) taken from two queen colonies. These colonies were disease-free and had received no chemical treatments (Eg. Varroacide). For oral toxicity tests, adult worker bees were collected from the hive combs (avoiding the brood nest area) or from the flight board.\nStock solutions of compounds were dissolved in dimethyl sulfoxide (DMSO) to obtain 500 ng/μL and stocked at −20° C. These samples were then diluted in sucrose solution (40%; w/v), for final experiments. […] Solutions of the test doses were stirred immediately prior to use and were visually homogenous when proposed to bees. Bee allocation to the treatment groups was made impartially. Before being used for the test, bees were subjected to a starvation period of between 2 h and 3 h under test conditions (For review, see Nauen, R.; Ebbinghaus-Kintscher, U.; Schmuck, R., Toxicity and nicotinic acetylcholine receptor interaction of imidacloprid and its metabolites in Apis mellifera (Hymenoptera: Apidae). Pest Management Science 2001, 57, (7), 577-586).\nSix batches of bees (20 bees per batch) were subjected to different doses of the test compound (nominal doses between 50 ng/bee and […]). Doses were determined according to the lethal dose of neonicotinoid insecticides inducing bee toxic effects (Table 3). Controls received sucrose solution containing 0.25% DMSO. The glass test feeders containing any unconsumed portions of the doses were removed and after each experiment a fresh sucrose solution was supplied in feeders within the cages. For each concentration three replicates were made (180 bees/concentration). Mortality was measured at 24 h and 48 h after treatment."}, "[3]": {"conditions": "bath application, dose-response curve of sixth abdominal ganglion depolarization"}},
  "note": "Like-named read-outs stand apart in the source and are kept apart here.",
  "data": [
    {"smiles": "CN/C(=N\\[N+](=O)[O-])NCc1cnc(Cl)s1", "note": "[Clothianidin]", "values": [
      {"measurement": "LD50", "setting": "[1]", "result": "21.8 ng/bee (Iwasa 2004)"}
    ]},
    {"smiles": "Cc1ccc(S(=O)(=O)N2CCCC2)cc1", "note": "[Compound 3aa, 1-tosylpyrrolidine]", "values": [
      {"measurement": "melting point", "result": 129, "unit": "°C"}
    ]},
    {"smiles": "Cc1ccc(S(=O)(=O)N2CCCC2C#N)cc1", "note": "(centres unmarked) [Compound 3ab, 1-tosylpyrrolidine-2-carbonitrile]", "values": [
      {"measurement": "melting point", "result": 102, "unit": "°C"}
    ]},
    {"smiles": "Cc1ccc(S(=O)(=O)N2CCC[C@H]2C#N)cc1", "note": "[Compound 3ac, (S)-1-tosylpyrrolidine-2-carbonitrile]", "values": [
      {"measurement": "melting point", "result": 102, "unit": "°C"}
    ]},
    {"smiles": "O=S(=O)(c1ccc(Cl)cc1)N1CCCC1", "note": "[Compound 3ba, 1-((4-chlorophenyl)sulfonyl) pyrrolidine]", "values": [
      {"measurement": "melting point", "result": 106, "unit": "°C"}
    ]},
    {"smiles": "N#CC1CCCN1S(=O)(=O)c1ccc(Cl)cc1", "note": "(centres unmarked) [Compound 3bb, 1-((4-chlorophenyl)sulfonyl) pyrrolidine-2-carbonitrile]", "values": [
      {"measurement": "melting point", "result": 115, "unit": "°C"}
    ]},
    {"smiles": "N#C[C@@H]1CCCN1S(=O)(=O)c1ccc(Cl)cc1", "note": "[Compound 3bc, (S)-1-((4-chlorophenyl)sulfonyl) pyrrolidine-2-carbonitrile]", "values": [
      {"measurement": "melting point", "result": 115, "unit": "°C"}
    ]},
    {"smiles": "O=S(=O)(c1ccc(Cl)nc1)N1CCCC1", "note": "[Compound 3da, 2-chloro-5-(pyrrolidin-1-ylsulfonyl)pyridine]", "values": [
      {"measurement": "melting point", "result": 134, "unit": "°C"}
    ]},
    {"smiles": "N#C[C@@H]1CCCN1S(=O)(=O)c1ccc(Cl)nc1", "note": "[Compound 3i, (S)-1-((6-chloropyridin-3-yl)sulfonyl)pyrrolidine-2-carbonitrile]", "values": [
      {"measurement": "EC50", "setting": "[2]; [3]", "result": 19, "unit": "µM"},
      {"measurement": "Depolarization of the sixth abdominal ganglion", "setting": "[2]; bath application", "result": "strong depolarization"},
      {"measurement": "Reversal of synaptic depolarization after wash-out", "setting": "[2]", "result": "not reversed after wash-out"},
      {"measurement": "% mortality 24 h", "setting": "honeybee Apis mellifera; 50 ng/bee", "result": 3.3, "unit": "%"},
      {"measurement": "% mortality 48 h", "setting": "honeybee Apis mellifera; 50 ng/bee", "result": 10.0, "unit": "%"},
      {"measurement": "% mortality 24 h", "setting": "honeybee Apis mellifera; 150 ng/bee", "result": 0, "unit": "%"},
      {"measurement": "% mortality 48 h", "setting": "honeybee Apis mellifera; 150 ng/bee", "result": 0, "unit": "%"}
    ]},
    {"smiles": "COc1ccc(S(=O)(=O)N2CCCC2)cn1", "note": "[Compound 3ii, 2-methoxy-5-(pyrrolidin-1-ylsulfonyl)pyridine]", "values": [
      {"measurement": "EC50", "setting": "[2]; [3]", "result": 8.02, "unit": "µM"},
      {"measurement": "Depolarization of the sixth abdominal ganglion", "setting": "[2]; bath application", "result": "strong depolarization"},
      {"measurement": "Reversal of synaptic depolarization after wash-out", "setting": "[2]", "result": "not reversed after wash-out"},
      {"measurement": "% mortality 24 h", "setting": "honeybee Apis mellifera; 50 ng/bee", "result": 0, "unit": "%"},
      {"measurement": "% mortality 48 h", "setting": "honeybee Apis mellifera; 50 ng/bee", "result": 3.3, "unit": "%"},
      {"measurement": "% mortality 24 h", "setting": "honeybee Apis mellifera; 150 ng/bee", "result": 0, "unit": "%"},
      {"measurement": "% mortality 48 h", "setting": "honeybee Apis mellifera; 150 ng/bee", "result": 1.2, "unit": "%"},
      {"measurement": "Toxicity for bees", "setting": "honeybee Apis mellifera", "result": "not toxic for bees"}
    ]},
    {"smiles": "COc1ccc(S(=O)(=O)N2CCCC2C#N)cn1", "note": "(centres unmarked) [Compound 3iii, 1-((6-methoxypyridin-3-yl)sulfonyl)pyrrolidine-2-carbonitrile]", "values": [
      {"measurement": "EC50", "setting": "[2]; [3]", "result": 4.25, "unit": "µM"},
      {"measurement": "Depolarization of the sixth abdominal ganglion", "setting": "[2]; bath application", "result": "strong depolarization"},
      {"measurement": "Reversal of synaptic depolarization after wash-out", "setting": "[2]", "result": "not reversed after wash-out"},
      {"measurement": "% mortality 24 h", "setting": "honeybee Apis mellifera; 50 ng/bee", "result": 3.3, "unit": "%"},
      {"measurement": "% mortality 48 h", "setting": "honeybee Apis mellifera; 50 ng/bee", "result": 5.0, "unit": "%"},
      {"measurement": "% mortality 24 h", "setting": "honeybee Apis mellifera; 150 ng/bee", "result": 2.5, "unit": "%"},
      {"measurement": "% mortality 48 h", "setting": "honeybee Apis mellifera; 150 ng/bee", "result": 3.7, "unit": "%"}
    ]},
    {"smiles": "Cc1ccc(S(=O)(=O)N2CCC[C@H]2C#N)cn1", "note": "[Compound 3iv, (S)-1-((6-methylpyridin-3-yl)sulfonyl)pyrrolidine-2-carbonitrile]", "values": [
      {"measurement": "Depolarization of the sixth abdominal ganglion", "setting": "[2]; bath application", "result": "strong depolarization"},
      {"measurement": "Reversal of synaptic depolarization after wash-out", "setting": "[2]", "result": "not reversed after wash-out"},
      {"measurement": "% mortality 24 h", "setting": "honeybee Apis mellifera; 50 ng/bee", "result": 0, "unit": "%"},
      {"measurement": "% mortality 48 h", "setting": "honeybee Apis mellifera; 50 ng/bee", "result": 0, "unit": "%"},
      {"measurement": "% mortality 24 h", "setting": "honeybee Apis mellifera; 150 ng/bee", "result": 0, "unit": "%"},
      {"measurement": "% mortality 48 h", "setting": "honeybee Apis mellifera; 150 ng/bee", "result": 0, "unit": "%"},
      {"measurement": "Toxicity for bees", "setting": "honeybee Apis mellifera", "result": "not toxic for bees"}
    ]},
    {"smiles": "CN/C(=N/CC1CCOC1)N[N+](=O)[O-]", "note": "(centres unmarked) [Dinotefuran]", "values": [
      {"measurement": "LD50", "setting": "[1]", "result": "75 ng/bee (Iwasa 2004)"}
    ]},
    {"smiles": "O=[N+]([O-])NC1=NCCN1Cc1ccc(Cl)nc1", "note": "[Imidacloprid, reference compound]", "values": [
      {"measurement": "EC50", "setting": "[2]", "result": "~15", "unit": "µM"}
    ]},
    {"smiles": "CCN(Cc1ccc(Cl)nc1)/C(=C/[N+](=O)[O-])NC", "note": "[Nitenpyram]", "values": [
      {"measurement": "LD50", "setting": "[1]", "result": 138, "unit": "ng/bee"}
    ]},
    {"smiles": "CN1COCN(Cc2cnc(Cl)s2)/C1=N\\[N+](=O)[O-]", "note": "[Thiamethoxam]", "values": [
      {"measurement": "LD50", "setting": "[1]", "result": "29.9 ng/bee (Iwasa 2004)"}
    ]}
  ]
}
